Source: patent US9862792B2, “Diblock copolymers and polynucleotide complexes thereof for delivery into cells” (University of Washington, priority 2008, dated 2018)

What was measured:
[1] = system: caspase 3/7; assay: Caspase 3/7 activity assay in HeLas; format: cell-based, human; conditions: HeLa, 30 minutes, 25 μM peptide or equivalent polymer; relative to no treatment
Description: Caspase 3/7 Activity Assay. Caspase 3/7 activation was measured using a commercially available assay kit. This assay utilizes a profluorescent caspase 3/7 substrate that once enzymatically cleaved becomes fluorescent allowing for determination of relative enzyme activity using a fluorescent plate reader. Here, HeLas were incubated for 30 minutes with 25 μM peptide (alone or as polymer conjugate) in addition to polymer alone in a quantity equivalent to the conjugate samples. Afterwards, a caspase 3/7 fluorigenic indicator was added directly to the culture media for each sample. Plates were shaken for 1 hour and then assayed using a fluorescent plate reader. Data were expressed as percent caspase activity relative to samples receiving no treatment.

[2] = system: mitochondrial membrane potential in HeLas; assay: Flow cytometry of mitochondrial membrane potential (JC-1 dye); format: cell-based, human; conditions: HeLa, 2 hours, 10 μM peptide or equivalent conjugate or polymer alone; versus no treatment
Description: Flow Cytometry Evaluation of Mitochondrial Membrane Potential. Loss of mitochondrial membrane potential, a known indicator for apoptosis, was assessed using the JC-1 dye. […] HeLas were incubated for 2 hours with 10 μM peptide or equivalent conjugate or polymer alone. JC-1 was added at a final concentration of 5 μg/mL and incubated for 15 minutes. Cells were washed 2 times with PBS, trypsinized, and resuspended in 0.5% BSA for flow cytometric analysis. Percent of cells displaying mitochondrial depolarization was quantified based on the number of green fluorescent cells that were negative for red fluorescence. Here, a significant loss of red fluorescent JC-1 aggregates and therefore a loss in mitochondrial polarization was detected following treatment with both the Antp-BH3 peptide and the polymer peptide conjugate (FIG. 21 A).

- caspase 3/7 activation [1]: approximately 2.5 fold
Substance: NH2-RQIKIWFQNRRMKWKKMGQVGRQLAIIGDDINRRYDSC-COOH (H-RQIKIWFQNRRMKWKKMGQVGRQLAIIGDDINRRYDSC-OH) [Antp-BH3]
- increase in percent of cells exhibiting loss of mitochondrial polarity [2]: approximately 4 fold
